According to patent publication US10508085B2, “Compounds and methods for IDO and TDO modulation, and indications therefor” (Plexxikon Inc., priority 2016, dated 2019):
Read-outs that look alike come from different tables or passages of the source.

Columns and labels:
[1] = molecular target: T1, human TDO (TDO-expressing HEK293 cells) (Homo sapiens, UniProt P48775); assay: Cell based kynurenine assay, TDO-expressing HEK293 cell clones
T1 construct: expressed in transfected cells
Procedure: (§1) Determine Inhibitor Activity Against IDO or TDO in Cell Based Kynurenine Assay
(§2) IDO1-expressing or TDO-expressing HEK293 cell clones are generated upon stable transfection of plasmids expressing human IDO or human TDO under the control of CMV promoter. Cells are selected in DMEM media supplemented with 10% fetal bovine serum and 1 mg/ml G418 at 37° C. in a humidified incubator supplied with 5% CO2. The assays are performed as follows.
(§3) Cells were seeded in a 96 well plate in 50 μL of culture media at a density of 2.5×10^4 per well. Serial dilutions of compounds (in total volume of 50 μL culture media) are added into cells. 4 wells containing 0.2% DMSO treated cells serve as high controls and 4 wells containing media only with 0.2% DMSO serve as low controls. After 24 hours of incubation, the supernatant was transferred to a 384 well reaction plate and the kynurenine level determined. The percentage inhibition at individual concentrations relative to high and low controls is calculated. The data is analyzed by using nonlinear regression to generate IC50 values.

[2] = molecular target: T2, Human Tryptophan 2,3-dioxygenase (TDO) (Homo sapiens, UniProt P48775); assay: Human TDO enzymatic assay (kynurenine level); assay type: biochemical
T2 construct: His tag (N); made in house; host or cells: E. coli
Method in brief: (§4)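 Compound is mixed with His-tagged enzyme from E. coli in pH 6.5 phosphate buffer containing ascorbate, methylene blue and catalase, at room temperature. IDO uses 6 nM enzyme and 10 μM Trp for 20 min. TDO uses 1 nM enzyme and 350 μM Trp for 70 min. TCA stops the reaction, and IC50 is derived from kynurenine levels.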

[3] = molecular target: T3, Human Indoleamine 2,3-dioxygenase (IDO) (Homo sapiens, UniProt P14902); assay: Human IDO enzymatic assay (kynurenine level); assay type: biochemical
T3 construct: His tag (N); made in house; host or cells: E. coli
Method in brief: as §4

[4] = molecular target: T4, human IDO (IDO1-expressing HEK293 cells) (Homo sapiens, UniProt P14902); assay: Cell based kynurenine assay, IDO1-expressing HEK293 cell clones; conditions: IDO1-expressing HEK293 cells, 24 hours incubation; geometric mean; read-out: HEK293 IDO1 Kynurenine GMean IC50 (μM) (Cellular Assay)
T4 construct: expressed in transfected cells
Procedure: as §1, §2, §3

[5] = TDO-expressing HEK293 cells, 24 hours incubation, geometric mean, read-out: HEK293 TDO Kynurenine GMean IC50 (μM) (Cellular Assay)
[6] = 1 nM TDO, 350 μM L-Trp, geometric mean, read-out: TDO GMean: IC50 (μM) (Biochemical Assay)
[7] = 6 nM IDO, 10 μM L-Trp, geometric mean, read-out: IDO1 GMean: IC50 (μM) (Biochemical Assay)
[8] = cellular assay, HEK293, 24 hours, comparative examples, read-out: hTDO
[9] = biochemical assay, comparative examples, 4,6 versus 5,7 indazole, read-out: TDO
[10] = biochemical assay, comparative examples, 4,6 versus 5,7 indazole, read-out: IDO1

T4 sequence (P14902 whole entry): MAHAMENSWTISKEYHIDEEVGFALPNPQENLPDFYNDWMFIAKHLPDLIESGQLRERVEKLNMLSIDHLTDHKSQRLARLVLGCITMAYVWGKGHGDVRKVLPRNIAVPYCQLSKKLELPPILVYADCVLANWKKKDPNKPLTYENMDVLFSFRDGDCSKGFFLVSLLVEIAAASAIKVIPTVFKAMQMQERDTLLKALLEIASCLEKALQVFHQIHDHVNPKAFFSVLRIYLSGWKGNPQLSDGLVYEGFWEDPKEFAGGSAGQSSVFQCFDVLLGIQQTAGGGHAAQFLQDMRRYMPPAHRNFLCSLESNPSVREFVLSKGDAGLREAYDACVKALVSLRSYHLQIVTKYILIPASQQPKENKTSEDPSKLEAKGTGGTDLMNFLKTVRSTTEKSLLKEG
T3 sequence (P14902 whole entry): as above
T2 sequence (P48775 whole entry): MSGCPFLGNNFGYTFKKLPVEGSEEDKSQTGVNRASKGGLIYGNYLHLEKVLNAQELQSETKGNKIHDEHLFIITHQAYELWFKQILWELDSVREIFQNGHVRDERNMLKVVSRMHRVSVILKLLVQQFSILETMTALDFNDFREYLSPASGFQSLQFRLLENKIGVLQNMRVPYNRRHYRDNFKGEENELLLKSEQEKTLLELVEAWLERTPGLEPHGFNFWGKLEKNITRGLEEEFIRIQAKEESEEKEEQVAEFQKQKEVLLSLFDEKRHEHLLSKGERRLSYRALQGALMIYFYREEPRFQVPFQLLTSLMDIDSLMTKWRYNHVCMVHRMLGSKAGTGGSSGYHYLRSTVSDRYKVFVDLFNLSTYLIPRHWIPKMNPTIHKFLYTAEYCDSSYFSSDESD
T1 sequence (P48775 whole entry): as above

Structure (SMILES) | IC50 [1, 5] [µM] | IC50 [2, 6] [µM] | IC50 [3, 7] [µM] | IC50 [4] [µM] | IC50 [1, 8] [µM] | IC50 [2, 9] [µM] | IC50 [3, 10] [µM]
CC(C)(C)OC(=O)N1CCC(C(C)(C)C(O)c2cc(Cl)cc3cn[nH]c23)CC1 (racemic) [Compound P-0163, tert-butyl 4-(1-(5-chloro-1H-indazol-7-yl)-1-hydroxy-2-methylpropan-2-yl)piperidine-1-carboxylate] | 0.0001 to 10 | 0.0001 to 10 | 0.0001 to 10 | 0.0001 to 10 | – | – | –
OC(c1c(F)c(Cl)cc2cn[nH]c12)C12CCC(CC1)CC2 (racemic) [Compound P-0294, bicyclo[2.2.2]octan-1-yl(5-chloro-6-fluoro-1H-indazol-7-yl)methanol] | 0.0001 to 10 | 0.0001 to 10 | 0.0001 to 10 | 0.0001 to 10 | – | – | –
OC(c1cccnc1)c1cc(Cl)cc2cn[nH]c12 (stereo not shown) [Compound P-0001, (5-chloro-1H-indazol-7-yl)(pyridin-3-yl)methanol] | > 10 | 0.0001 to 10 | 0.0001 to 10 | > 10 | – | – | –
OC(c1cc(Cl)cc2cn[nH]c12)C1CCCCC1 (stereo not shown) [Compound P-0002, (5-chloro-1H-indazol-7-yl)(cyclohexyl)methanol] | 0.0001 to 10 | 0.0001 to 10 | 0.0001 to 10 | 0.0001 to 10 | – | – | –
OC(c1cc(Cl)cc2cn[nH]c12)C1(F)CCCCC1 (stereo not shown) [Compound P-0004, (5-chloro-1H-indazol-7-yl)(1-fluorocyclohexyl)methanol] | 0.0001 to 10 | 0.0001 to 10 | 0.0001 to 10 | 0.0001 to 10 | – | – | –
OC(c1cc(Cl)cc2cn[nH]c12)C1CCCC1 (stereo not shown) [Compound P-0005, (5-chloro-1H-indazol-7-yl)(cyclopentyl)methanol] | 0.0001 to 10 | 0.0001 to 10 | 0.0001 to 10 | 0.0001 to 10 | – | – | –
CC1(C(O)c2cc(Cl)cc3cn[nH]c23)CCCCC1 (stereo not shown) [Compound P-0006, (5-chloro-1H-indazol-7-yl)(1-methylcyclohexyl)methanol] | 0.0001 to 10 | 0.0001 to 10 | 0.0001 to 10 | 0.0001 to 10 | – | – | –
Cc1ccc2cn[nH]c2c1C(O)C1(C)CCCCC1 (stereo not shown) [Compound P-0015, (6-methyl-1H-indazol-7-yl)(1-methylcyclohexyl)methanol] | – | 0.0001 to 10 | 0.0001 to 10 | 0.0001 to 10 | – | – | –
CC(C)(C)OC(=O)N1CCC2(CC1)CC(O)(c1cc(Cl)cc3cn[nH]c13)C2 [Compound P-0019, tert-butyl 2-(5-chloro-1H-indazol-7-yl)-2-hydroxy-7-azaspiro[3.5]nonane-7-carboxylate] | – | – | – | > 10 | – | – | –
OC1(c2cc(Cl)cc3cn[nH]c23)CC2(CCNCC2)C1 [Compound P-0020, 2-(5-chloro-1H-indazol-7-yl)-7-azaspiro[3.5]nonan-2-ol] | > 10 | > 200 | – | > 10 | – | – | –
CS(=O)(=O)N1CCC(O)(c2cc(Cl)cc3cn[nH]c23)CC1 [Compound P-0023, 4-(5-chloro-1H-indazol-7-yl)-1-(methylsulfonyl)piperidin-4-ol] | – | – | – | > 10 | – | – | –
CS(=O)(=O)N1CC(O)(c2cc(Cl)cc3cn[nH]c23)C1 [Compound P-0024, 3-(5-chloro-1H-indazol-7-yl)-1-(methylsulfonyl)azetidin-3-ol] | – | – | – | > 10 | – | – | –
O=S1(=O)CC2(CC(O)(c3cc(Cl)cc4cn[nH]c34)C2)C1 [Compound P-0056, 6-(5-chloro-1H-indazol-7-yl)-6-hydroxy-2-thiaspiro[3.3]heptane 2,2-dioxide] | – | – | 10 to 100 | > 10 | – | – | –
OC(c1ccccc1)c1cccc2cncn12 (stereo not shown) [Compound P-0057, imidazo[1,5-a]pyridin-5-yl(phenyl)methanol] | – | 0.0001 to 10 | 0.0001 to 10 | > 10 | – | – | –
C[C@H](O)CNC(=O)N1CCC(C(C)(C)[C@H](O)c2cc(Cl)cc3cn[nH]c23)CC1 [Compound P-0671, 4-((S)-1-(5-chloro-1H-indazol-7-yl)-1-hydroxy-2-methylpropan-2-yl)-N-((S)-2-hydroxypropyl) piperidine-1-carboxamide] | – | 0.0001 to 10 | 0.0001 to 10 | – | – | – | –
CC(C)(C1CCN(C(=O)NC2(C#N)CC2)CC1)[C@H](O)c1cc(Cl)cc2cn[nH]c12 [Compound P-0672, (S)-4-(1-(5-chloro-1H-indazol-7-yl)-1-hydroxy-2-methylpropan-2-yl)-N-(1-cyanocyclopropyl) piperidine-l-carboxamide] | – | 0.0001 to 10 | 0.0001 to 10 | – | – | – | –

Structure (SMILES) | IC50 [1, 5] [µM] | IC50 [2, 6] [µM] | IC50 [3, 7] [µM] | IC50 [4] [µM] | IC50 [1, 8] [µM] | IC50 [2, 9] [µM] | IC50 [3, 10] [µM]
CC(C)(C1CCN(C(=O)NCC(=O)O)CC1)[C@H](O)c1cc(Cl)cc2cn[nH]c12 [Compound P-0673, (S)-(4-(1-(5-chloro-1H-indazol-7-yl)-1-hydroxy-2-methylpropan-2-yl)piperidine-1-carbonyl)glycine] | – | 0.0001 to 10 | 0.0001 to 10 | – | – | – | –
CC(C)(C1CCN(C(=O)NC2CCS(=O)(=O)CC2)CC1)[C@H](O)c1cc(Cl)cc2cn[nH]c12 [Compound P-0674, (S)-4-(1-(5-chloro-1H-indazol-7-yl)-1-hydroxy-2-methylpropan-2-yl)-N-(1,1-dioxidotetrahydro-2H-thiopyran-4-yl)piperidine-1-carboxamide] | – | 0.0001 to 10 | 0.0001 to 10 | – | – | – | –
CC(C)(C1CCN(C(=O)NCC2(C#N)CC2)CC1)[C@H](O)c1cc(Cl)cc2cn[nH]c12 [Compound P-0675, (S)-4-(1-(5-chloro-1H-indazol-7-yl)-1-hydroxy-2-methylpropan-2-yl)-N-((1-cyanocyclopropyl)methyl)piperidine-1-carboxamide] | – | 0.0001 to 10 | 0.0001 to 10 | – | – | – | –
CN1CCN(Cc2ccc(NC(=O)N3CCC(C(C)(C)[C@H](O)c4cc(Cl)cc5cn[nH]c45)CC3)cc2)CC1 [Compound P-0676, (S)-4-(1-(5-chloro-1H-indazol-7-yl)-1-hydroxy-2-methylpropan-2-yl)-N-(4-((4-methylpiperazin-1-yl)methyl)phenyl) piperidine-1-carboxamide] | – | 0.0001 to 10 | 0.0001 to 10 | – | – | – | –
CC(C)(C1CCN(C(=O)NCCNS(C)(=O)=O)CC1)[C@H](O)c1cc(Cl)cc2cn[nH]c12 [Compound P-0677, (S)-4-(1-(5-chloro-1H-indazol-7-yl)-1-hydroxy-2-methylpropan-2-yl)-N-(2-(methylsulfonamido)ethyl)piperidine-1-carboxamide] | – | 0.0001 to 10 | 0.0001 to 10 | – | – | – | –
CC(C)(C1CCN(C(=O)NCCN2CCCS2(=O)=O)CC1)[C@H](O)c1cc(Cl)cc2cn[nH]c12 [Compound P-0678, (S)-4-(1-(5-chloro-1H-indazol-7-yl)-1-hydroxy-2-methylpropan-2-yl)-N-(2-(1,1-dioxidoisothiazolidin-2-yl)ethyl)piperidine-1-carboxamide] | – | 0.0001 to 10 | 0.0001 to 10 | – | – | – | –
CC(C)(C1CCN(C(=O)NCc2cccnc2)CC1)[C@H](O)c1cc(Cl)cc2cn[nH]c12 [Compound P-0679, (S)-4-(1-(5-chloro-1H-indazol-7-yl)-1-hydroxy-2-methylpropan-2-yl)-N-(pyridin-3-ylmethyl)piperidine-1-carboxamide] | – | 0.0001 to 10 | 0.0001 to 10 | – | – | – | –
CC(C)(C1CCN(C(=O)NCc2cnccn2)CC1)[C@H](O)c1cc(Cl)cc2cn[nH]c12 [Compound P-0680, (S)-4-(1-(5-chloro-1H-indazol-7-yl)-1-hydroxy-2-methylpropan-2-yl)-N-(pyrazin-2-ylmethyl)piperidine-1-carboxamide] | – | 0.0001 to 10 | 0.0001 to 10 | – | – | – | –
CC(C)(C1CCN(C(=O)NCc2ccnnc2)CC1)[C@H](O)c1cc(Cl)cc2cn[nH]c12 [Compound P-0681, (S)-4-(1-(5-chloro-1H-indazol-7-yl)-1-hydroxy-2-methylpropan-2-yl)-N-(pyridazin-4-ylmethyl)piperidine-1-carboxamide] | – | 0.0001 to 10 | 0.0001 to 10 | – | – | – | –
OC(c1cc(Cl)cc2[nH]ncc12)C1CCCCC1 (stereo not shown) [drawing 811] | – | – | – | – | 0.05 | 6.06 | 3.25
COC12CCC(C(O)c3cc(Cl)cc4[nH]ncc34)(CC1)CC2 (stereo not shown) [drawing 813] | – | – | – | – | 0.17 | 0.16 | 6.6
CC(C)(C1CCN(S(C)(=O)=O)CC1)C(O)c1cc(Cl)cc2[nH]ncc12 (stereo not shown) [drawing 815] | – | – | – | – | 0.01 | 0.1 | 0.7
OC1(c2cc(Cl)cc3cn[nH]c23)CC2(CCC2)C1 [drawing 818] | – | – | – | – | 2.94 | 0.04 | 0.14
OC1(c2cc(Cl)cc3[nH]ncc23)CC2(CCC2)C1 [drawing 819] | – | – | – | – | 0.03 | 0.04 | 22
OC1(c2cc(Cl)cc3[nH]ncc23)CC2(CCOCC2)C1 [drawing 821] | – | – | – | – | 0.57 | 0.18 | ≥ 200
